Reference: patent US20040191287A1, “Fumigation process for stored food grains” (priority 2003, published 2004)
Read-outs that look alike come from different tables or passages of the source.

Experiments:
[1] = test system: S. oryzae mixed-age cultures; conditions: 72 hours at 26±2° C., 19.5 liter tin container with 12 kg wheat
From the text: (§3) Fumigation experiments with allyl acetate have been conducted in 19.5 litre capacity tin containers with mixed- age cultures of R. dominica, S. oryzae and T. castaneum as the test insects.
(§4) Mixed-age cultures of S. oryzae and R. dominica were obtained by allowing 300 adults of the individual species to breed in about 1 kg of wheat in a 2-liter glass jar. To obtain mixed- age culture of T. castaneum about 300 adults were released into 1 kg of whole-wheat flour plus 5% dried yeast in a 2-litre glass jar. The insect culture jars were kept under the rearing temperature conditions i.e., 25±1° C. for S. oryzae and T. castaneum and 30±1° C. for R. dominica.
(§5) The infested grain/flour after an incubation period of 7 weeks was used for the experiment. The cultures were weighed into 50 gm aliquots in 21 cm×14 cm size cloth bags. One set of three test insect bags comprising R. dominica, S. oryzae and T. castaneum were kept at the bottom of the container before filling the grain.
(§6) Another set of three-test insect bags was kept on the top layer of grains. The grain-filled containers were, then, fumigated with allyl acetate for 72 hours at 26±2° C. There were 6 doses ranging from 100 to 800 mg/litre with 3 replicates/dosage along with untreated controls. Required quantity of allyl acetate was measured in 10 and 25 ml measuring cylinder and quickly poured on to 5 gm of absorbent cotton wool kept over the grain layer in the tin container.
(§7) Immediately after dosing, the container was closed with the lid tightly and sealed along the rim with adhesive tape. At the end of 72 hour, the lid was removed to aerate the commodity and the test insect bags were retrieved and the contents transferred to 300 ml capacity glass bottles.
(§8) Insect survivors in the samples were recorded at weekly intervals for 8 weeks. Mortality in fumigated batches was calculated based on emergence/survivors in controls.

Rhyzopertha dominica [2] = test: LD 50 / LD 99 of allyl acetate to adults, probit analysis (Example 2); assay type: in vivo; conditions: R. dominica adults, 24-hour exposure at 26 ± 2° C.
Method: (§1) Assays with allyl acetate against the adults of four species of stored grain insects namely S. oryzae, R. dominica, T. castaneum and Cryptolestes sp. were carried out to determine LD 50 and LD 99 doses. […] Cryptolestes sp. was reared on wheat feed. […] The insects were exposed to different doses of allyl acetate for 24 hour in 0.85-liter desiccators to yield 20-100% mortality. There were 6 replicates for each dose along with equal number of untreated control. […] Mortality of treated insects was assessed at the end of 14 days and it was corrected for natural control mortality. The data for the individual species were subjected to probit analysis following the method of Finney (1971) to arrive at LD 50 and LD 99 values.

Sitophilus oryzae [3] = test: as above; assay type: in vivo; conditions: S. oryzae adults, 24-hour exposure at 26 ± 2° C.
Method: as §1

Cryptolestes sp. = test: as above; assay type: in vivo; conditions: 24-hour exposure at 26 ± 2° C.
Method: as §1

Tribolium castaneum [4] = test: as above; assay type: in vivo; conditions: T. castaneum adults, 24-hour exposure at 26 ± 2° C.
Method: as §1

[5] = test system: T. castaneum mixed-age cultures; conditions: 72 hours at 26±2° C., 19.5 liter tin container with 12 kg wheat
From the text: as §3, §4, §5, §6, §7, §8

[6] = test system: R. dominica mixed-age cultures; conditions: 72 hours at 26±2° C., 19.5 liter tin container with 12 kg wheat
From the text: as §3, §4, §5, §6, §7, §8

[7] = cited from earlier work
[8] = cited from earlier work; remark: listed apart in the source
[9] = test system: S. oryzae mixed-age cultures; conditions: 200 mg/liter, 26 ± 2° C., 19.5 liter tin container with 12 kg of wheat
Method: (§9) Further fumigation tests were carried out with allyl acetate at 200 mg/litre and with three different exposure periods of 24, 48 and 72 hours in 19.5 litre tin containers filled with 12 kg of wheat. Mixed- age cultures of R. dominica, S. oryzae and T. castaneum were used as the test insects.
(§10) Mixed-age cultures of S. oryzae and R. dominica were obtained by allowing 300 adults of the individual species to breed in about 1 kg of wheat in a 2-liter glass jar. To obtain mixed- age culture of T. castaneum about 300 adults were released into 1 kg of whole-wheat flour plus 5% dried yeast in a 2-litre glass jar. The insect culture jars were kept under the rearing temperature conditions i.e., 25±1° C. for S. oryzae and T. castaneum and 30±1° C. for R. dominica. The infested grain/flour after an incubation period of 7 weeks was used for the experiment. The cultures were weighed into 50 gm aliquots in 21 cm×14 cm size cloth bags. One set of three test insect bags comprising R. dominica, S. oryzae and T. castaneum were kept at the bottom of the container before filling the grain. […] Another set of three-test insect bags was kept on the top layer of grains. The grain-filled containers were, then, fumigated with allyl acetate for 24, 48 and 72 hours at 26±2° C. The commodity was treated with allyl acetate at the dosage of 200 mg/litre. Required quantity of allyl acetate was measured in 10 and 25 ml measuring cylinder and quickly poured on to 5 gm of absorbent cotton wool kept over the grain layer in the tin container. Immediately after dosing, the container was closed with the lid tightly and sealed along the rim with adhesive tape. At the end of the exposure period, the lid was removed to aerate the commodity and the test insect bags were retrieved and the contents transferred to 300 ml capacity glass bottles. Insect survivors in the samples were recorded at weekly intervals for 8 weeks. Mortality in fumigated batches was calculated based on emergence/survivors in controls.

[10] = test system: T. castaneum mixed-age cultures; conditions: 200 mg/liter, 26 ± 2° C., 19.5 liter tin container with 12 kg of wheat
Method: as §9, §10

Rhyzopertha dominica [11] = test: whole plant or invertebrate
Method: (§2) Cryptolestes sp. was reared on wheat feed. S. oryzae, Cryptolestes sp. and T. castaneum cultures were maintained at 25±1° C. and 70% RH whereas R. dominica cultures were maintained at 30±1° C. and 70% RH. From the established cultures, 2-week-old adults were taken and counted into 10 cm×2.3 cm size test tubes at 50 per replicate. The mouth of the tube was closed with a cloth piece held by small rubber ring. The insects were exposed to a range of doses (10 to 100 mg/litre) of esters for 24 hours in 0.85-liter desicators at the laboratory temperature of 26±2° C. Pure grade esters including allyl acetate, butyl acetate, ethyl acetoacetate, isopropyl acetate and propyl acetate were procured from Merck India Ltd. In each desiccator a 9 cm diameter Whatman No. 1 filter circle was placed; the filter circle acted as evaporating surface for the injected liquids (esters). Required quantity of the ester was drawn from the bottles using 10, 25 or 50 micro litre liquid syringe. There were 6 replicates for each dose with equal number of replicates for untreated control. The exposure period in all cases was 24 hours. […] Insect mortality was assessed after 14 days. Corrected mortality was arrived at based on Abbott's formula (1925).

Sitophilus oryzae [12] = test: whole plant or invertebrate
Method: as §2

Tribolium castaneum [13] = test: whole plant or invertebrate
Method: as §2

[14] = Rhyzopertha dominica, read-out: Mortality (%) (Mean ± SD)
[15] = Sitophilus oryzae, read-out: Mortality (%) (Mean ± SD)
[16] = Tribolium castaneum, read-out: Mortality (%) (Mean ± SD)

C=CCOC(C)=O [allyl acetate]
% mortality based on survivors in controls ([1]; 100 mg/liter): (98.9) %
No. of survivors from 50 g lots of mixed-age cultures following treatment ([1]; 100 mg/liter): 11.5
% mortality based on survivors in controls ([1]; 150 mg/liter): (99.9) %
No. of survivors from 50 g lots of mixed-age cultures following treatment ([1]; 150 mg/liter): 1
% mortality based on survivors in controls ([1]; 200 mg/liter): (100) %
No. of survivors from 50 g lots of mixed-age cultures following treatment ([1]; 200 mg/liter): 0
% mortality based on survivors in controls ([1]; 400 mg/liter): (100) %
No. of survivors from 50 g lots of mixed-age cultures following treatment ([1]; 400 mg/liter): 0
% mortality based on survivors in controls ([1]; 600 mg/liter): (100) %
No. of survivors from 50 g lots of mixed-age cultures following treatment ([1]; 600 mg/liter): 0
% mortality based on survivors in controls ([1]; 800 mg/liter): (100) %
No. of survivors from 50 g lots of mixed-age cultures following treatment ([1]; 800 mg/liter): 0
LD 50 (mg/Liter) (Rhyzopertha dominica [2]): 1.69 (1.30; 2.02) mg/Liter
LD 99 (mg/Liter) (Rhyzopertha dominica [2]): 7.56 (5.81; 11.67) mg/Liter
LD 50 (mg/Liter) (Sitophilus oryzae [3]): 4.08 (3.70; 4.42) mg/Liter
LD 99 (mg/Liter) (Sitophilus oryzae [3]): 12.81 (10.90; 16.15) mg/Liter
LD 99 (mg/Liter) (Cryptolestes sp.): 5.44 (4.29; 15.6) mg/Liter
LD 50 (mg/Liter) (Tribolium castaneum [4]): 6.14 (5.33; 6.80) mg/Liter
LD 99 (mg/Liter) (Tribolium castaneum [4]): 11.42 (9.85; 14.92) mg/Liter
% mortality based on survivors in controls ([5]; 100 mg/liter): (100) %
No. of survivors from 50 g lots of mixed-age cultures following treatment ([5]; 100 mg/liter): 0
% mortality based on survivors in controls ([5]; 150 mg/liter): (100) %
No. of survivors from 50 g lots of mixed-age cultures following treatment ([5]; 150 mg/liter): 0
% mortality based on survivors in controls ([5]; 200 mg/liter): (100) %
No. of survivors from 50 g lots of mixed-age cultures following treatment ([5]; 200 mg/liter): 0
% mortality based on survivors in controls ([5]; 400 mg/liter): (100) %
No. of survivors from 50 g lots of mixed-age cultures following treatment ([5]; 400 mg/liter): 0
% mortality based on survivors in controls ([5]; 600 mg/liter): (100) %
No. of survivors from 50 g lots of mixed-age cultures following treatment ([5]; 600 mg/liter): 0
% mortality based on survivors in controls ([5]; 800 mg/liter): (100) %
No. of survivors from 50 g lots of mixed-age cultures following treatment ([5]; 800 mg/liter): 0
% mortality based on survivors in controls ([6]; 100 mg/liter): (100) %
No. of survivors from 50 g lots of mixed-age cultures following treatment ([6]; 100 mg/liter): 0
% mortality based on survivors in controls ([6]; 150 mg/liter): (100) %
No. of survivors from 50 g lots of mixed-age cultures following treatment ([6]; 150 mg/liter): 0
% mortality based on survivors in controls ([6]; 200 mg/liter): (100) %
No. of survivors from 50 g lots of mixed-age cultures following treatment ([6]; 200 mg/liter): 0
% mortality based on survivors in controls ([6]; 400 mg/liter): (100) %
No. of survivors from 50 g lots of mixed-age cultures following treatment ([6]; 400 mg/liter): 0
% mortality based on survivors in controls ([6]; 600 mg/liter): (100) %
No. of survivors from 50 g lots of mixed-age cultures following treatment ([6]; 600 mg/liter): 0
% mortality based on survivors in controls ([6]; 800 mg/liter): (100) %
No. of survivors from 50 g lots of mixed-age cultures following treatment ([6]; 800 mg/liter): 0
Vapour pressure at 27° C. (mm Hg) ([7]; 27° C.): 6 mm Hg
Solubility in water [7]: Insoluble
Mammalian Toxicity (irritation) ([8]; eyes, respiratory system and skin): Irritating to eyes, respiratory
Mammalian Toxicity ([8]; routes of toxicity: inhalation, contact and ingestion): Toxic by inhalation,
% mortality based on survivors in controls ([9]; exposure period 24 hour): (99.9) %
No. of survivors from 50 g lots of mixed-age cultures following treatment ([9]; exposure period 24 hour): 0.33
% mortality based on survivors in controls ([9]; exposure period 48 hour): (99.9) %
No. of survivors from 50 g lots of mixed-age cultures following treatment ([9]; exposure period 48 hour): 0.33
% mortality based on survivors in controls ([9]; exposure period 72 hour): (100) %
No. of survivors from 50 g lots of mixed-age cultures following treatment ([9]; exposure period 72 hour): 0
% mortality based on survivors in controls ([10]; exposure period 24 hour): (100) %
No. of survivors from 50 g lots of mixed-age cultures following treatment ([10]; exposure period 24 hour): 0
% mortality based on survivors in controls ([10]; exposure period 48 hour): (100) %
No. of survivors from 50 g lots of mixed-age cultures following treatment ([10]; exposure period 48 hour): 0
% mortality based on survivors in controls ([10]; exposure period 72 hour): (100) %
No. of survivors from 50 g lots of mixed-age cultures following treatment ([10]; exposure period 72 hour): 0
mortality at 10 µg/mL (Rhyzopertha dominica [11]; [14]): 100%
mortality at 20 µg/mL (Rhyzopertha dominica [11]; [14]): 100%
mortality at 30 µg/mL (Rhyzopertha dominica [11]; [14]): 100%
mortality at 50 µg/mL (Rhyzopertha dominica [11]; [14]): 100%
mortality at 100 µg/mL (Rhyzopertha dominica [11]; [14]): 100%
mortality of the adults (Rhyzopertha dominica [11]; in vivo): 100%
mortality at 10 µg/mL (Sitophilus oryzae [12]; [15]): 92.3 ± 12.7%
mortality at 20 µg/mL (Sitophilus oryzae [12]; [15]): 100%
mortality at 30 µg/mL (Sitophilus oryzae [12]; [15]): 100%
mortality at 50 µg/mL (Sitophilus oryzae [12]; [15]): 100%
mortality at 100 µg/mL (Sitophilus oryzae [12]; [15]): 100%
mortality of the adults (Sitophilus oryzae [12]; in vivo): 100%
mortality at 10 µg/mL (Tribolium castaneum [13]; [16]): 96 ± 3.7%
mortality at 20 µg/mL (Tribolium castaneum [13]; [16]): 100%
mortality at 30 µg/mL (Tribolium castaneum [13]; [16]): 100%
mortality at 50 µg/mL (Tribolium castaneum [13]; [16]): 100%
mortality at 100 µg/mL (Tribolium castaneum [13]; [16]): 100%
mortality of the adults (Tribolium castaneum [13]; in vivo): 100%
